According to paper PMC9834240, “Senescent cells perturb intestinal stem cell differentiation through Ptk7 induced noncanonical Wnt and YAP signaling” (Nature Communications, 2023):
Where “and” joins values, the source holds several entries; their conditions need not be identical. Identical values can stand only once.

B1: sPtk7: soluble/shed N-terminal extracellular domain of Ptk7 (protein)
chain: AIVFIKQPSSQDALQGRRALLRCEVEAPGPVHVYWLLDGAPVQDTERRFAQGSSLSFAAVDRLQDSGTFQCVARDDVTGEEARSANASFNIKWIEAGPVVLKHPASEAEIQPQTQVTLRCHIDGHPRPTYQWFRDGTPLSDGQSNHTVSSKERNLTLRPAGPEHSGLYSCCAHSAFGQACSSQNFTLSIADESFARVVLAPQDVVVARYEEAMFHCQFSAQPPPSLQWLFEDETPITNRSRPPHLRRATVFANGSLLLTQVRPRNAGIYRCIGQGQRGPPIILEATLHLAEIEDMPLFEPRVFTAGSEERVTCLPPKGLPEPSVWWEHAGVRLPTHGRVYQKGHELVLANIAESDAGVYTCHAANLAGQRRQDVNITVATVPSWLKKPQDSQLEEGKPGYLDCLTQATPKPTVVWYRNQMLISEDSRFEVFKNGTLRINSVEVYDGTWYRCMSSTPAGSIEAQARVQVLEKLKFTPPPQPQQCMEFDKEATVPCSATGREKPTIKWERADGSSLPEWVTDNAGTLHFARVTRDDAGNYTCIASNGPQGQIRAHVQLTVAVFITFKVEPERTTVYQGHTALLQCEAQGDPKPLIQWKGKDRILDPTKLGPRMHIFQNGSLVIHDVAPEDSGRYTCIAGNSCNIKHTEAPLYVVDKPVPEESEGPGSPPPYKMIQT
modifications: left off: Fc (human IgG1, from the anti-hIgG1-Fc detection antibody), end not stated, kept
notes: soluble/shed N-terminal extracellular domain of Ptk7

How the values were obtained:
[1] = test system: soluble Ptk7 (sPtk7) shed by MEFs; assay: Western blot for sPtk7 in conditioned media; format: cell-based, mouse
Protocol: Twenty-four hours before collecting conditioned media (CM), MEFs were washed with serum-free DMEM twice, and serum-free DMEM was added. After 24 h in serum-free DMEM, this CM was collected, filtered using Steriflip filters (Millipore, #SE1M179M6) to remove cell debris, and concentrated using centrifugal filter units (Amicon ultra-15 centricon; Millipore, # UFC900324). To collect CM without sPtk7, TAPI-1 (Millipore, #59053) or GM6001 (Sigma-Aldrich, #364206) containing serum-free DMEM instead of serum-free DMEM was added to the cells. To inhibit Wnt secretion, IWP-L6 (Sigma-Aldrich, #504819) containing serum-free DMEM instead of serum-free DMEM was added to the cells. CM was filtered and dialyzed for 24–48 h to remove the inhibitors before concentration. Concentrated CM from equal numbers of MEFs was mixed with IntestiCult Organoid Growth Medium (Stem Cell Technologies, #06005) and added to the organoid cultures.
Conditioned media corresponding to the same number of cells were loaded for SDS–PAGE. Total cell and tissue lysates of mouse fibroblasts and intestine were prepared using RIPA lysis buffer (Thermo Fisher Scientific, #89900) with protease/phosphatase inhibitor (Thermo Fisher Scientific, #1861281). Protein concentration was measured with BCA protein assay kit (Thermo Fisher Scientific, #23227), and equal amount of proteins were loaded for SDS–PAGE. […]

[2] = test system: MEFs; assay: SA-β-Gal staining; format: cell-based, mouse; settings: X-ray irradiation or doxorubicin (250 nM, 3 days)
Protocol: Staining was performed with the Senescence Detection Kit (Abcam, #ab65351) following the manufacturer’s protocol. Briefly, MEFs were fixed for 15 min with 1× fixation solution, washed with PBS, then stained overnight at 37 °C in 1× staining solution. Brightfield images were captured on the Zeiss Axio Imager M2 microscope.

[3] = test system: mouse intestinal organoids; assay: cystic organoid percentage, organoids treated with recombinant Wnt ligands (Wnt3a, Wnt5a, Wnt11); format: cell-based; settings: for percentage of cystic organoids: Fig. 4e, individual mice, n = 3
Protocol: The jejunum part of the small intestine was removed, flushed with PBS, opened longitudinally, then cut into 0.5 cm pieces. The collected tissues were washed with ice cold PBS multiple times by vortexing and incubated in PBS containing 2.5 mM EDTA for 5 min at 37 °C. After gentle shaking and aspiration, tissues were incubated in PBS containing 5 mM EDTA for 7 min at 37 °C. Tissues were then washed with PBS to remove EDTA and vigorously shaken to release crypts. The released crypts were passed through 70 μm strainers, washed with PBS, and pelleted by centrifugation at 200 × g. Resuspended crypts were mixed with Matrigel (Corning, #356231; Lot#8218007) and pipetted into culture plates. After mixture of crypts and Matrigel solidified, IntestiCult Organoid Growth Medium (Stem Cell Technologies, #06005; Lots #1000021927, #1000034230, #1000037372) was added. Seven days after seeding, organoids were resuspended in dissociation buffer (Gentle Cell Dissociation Reagent; Stem Cell Technologies, #07174), dissociated by pipetting, and seeded for experiments.
3-4 biological replicates of organoids from different mice were used per condition. Organoids were cultured in the indicated media, inhibitors, antibodies and/or recombinant proteins for 5 d and fixed in 4% formaldehyde in PBS. Organoids were imaged with a 4× Plan Fluor objective (NA: 0.13, Nikon) on a Nikon Ti-E inverted microscope equipped with a Neo scMOS camera (Andor, Oxford Instruments), a linear encoded automated stage (Applied Scientific Instrumentation), all run by NIS Elements software (Nikon). Organoids were imaged in brightfield and images covering the whole well were stitched and focused into one image projection with an extended depth of focus module (EDF; Nikon). One hundred to 200 organoids per replicate per condition were counted and used for quantification. The number of budding organoids in each condition was normalized by the number of budding organoids in untreated or DMSO treated controls to calculate cystic organoid percentage:1 Cysticorganoidpercentage=100×1−Numberofbuddingorganoidsfromexperiment/Numberofbuddingorganoidsfromcontrol

[4] = test system: cytosolic Ca2+ in mouse intestinal organoids; assay: live Ca2+ imaging of mouse intestinal organoids (GCaMP6f/tdTomato: baselined area under curve, peak number, height, width); format: cell-based; settings: live organoids expressing GCaMP6f
Protocol: Z stacks were acquired every 10 s.
Z-stack images were converted to mean intensity projections and, where required; background was subtracted using a rolling ball algorithm. Segmentation was conducted on a max-projection over-time of the GCaMP6f channel using Cellpose’s pre-trained “Cytoplasm” classifier. Mean intensity traces were measured in each ROI over the time course in both the GCaMP6f and TdTomato channels using scikit-image[138]. Ca^2+ oscillation patterns were calculated in an unsupervised, automated manner using MATLAB. Mean intensity traces were smoothed using a Savitzky-Golay filter and peaks were identified using the “findpeaks” algorithm from the MATLAB Signal Processing Toolbox. Graphs for GCaMP6f/tdTomato fluorescence ratio, peak numbers, peak height, peak width and baselined area under the curve were generated using Python matplotlib and seaborn packages. Statistical analysis was performed using Python SciPy and scikit-post-hoc packages.

[5] = test system: β-Catenin-dependent Wnt signaling (HEK293-TB cells); assay: TOPbrite dual-luciferase Wnt reporter assay; format: cell-based; settings: SF.3e
Protocol: Generation of HEK293 cells stably expressing a TOPbrite firefly luciferase Wnt reporter and pRL-SV40 Renilla luciferase (HEK293-TB) was previously described. HEK293-TB cells were maintained in DMEM/F12 (50:50), supplemented with 10% FBS, 2 mM Glutamax (Gibco, #35050-061) and 40 μg/ml hygromycin (Cellgro, #30-240-CR). For the luciferase reporter assay, HEK293-TB cells were seeded in 96-well plates (Falcon, #353377). The next day, cells were treated with indicated Wnt ligands (50 ng/ml) or CM diluted in culture media. After 24 h, the firefly and Renilla luciferase activity was measured using Dual-Glo Luciferase Assay system (Promega, #E2940) on a Perkin Elmer EnVision multilabel reader. The ratios of firefly luminescence to Renilla luminescence were calculated and normalized to control samples that were not treated.

[6] = test system: biotinylated Wnt3a; assay: ELISA binding to Wnt3a; parameters: species or system mouse; settings: PTK7 with FZD7 CRD
Protocol: (§1) Proteins used in ELISAs were obtained from R&D Systems: PTK7-Fc (R&D Systems, #9799-TK), biotinylated Wnt3a (R&D Systems, #BT1324), biotinylated Wnt5a (R&D Systems, #BT645). […] Assay plates (384 Maxisorp plates, Nunc, # 464718) were prepared by incubation overnight with 30 µl/well Neutravidin (2 µg/ml, Thermo Fisher Scientific, #31055) in PBS at 4 °C. Plates were emptied and incubated with 100 µl/well of blocking buffer (PBS, 2% bovine serum albumin, 0.01% NaN3) for 1 h at room temperature with shaking. Blocking buffer was aspirated and plates were washed 8x with 70 µl/well of PBS-T. In parallel, bio-Wnt3a or bio-Wnt5a were incubated in helper plates (384 well plates, Nunc; #264574) with a dilution series of PTK7-Fc or FZD7-His in the presence or absence of FZD7-His as a competitor in assay diluent (PBS + 0.5 % BSA + 15 ppm ProClin 300 (Sigma-Aldrich, #48914-U) for 1 h at 4 °C. Protein mixtures (25 µl/well) were transferred from helper plates to 3 wells of assay plates (technical triplicates), and incubated for 1 h at 4 °C. Assay plates were aspirated and washed 8× with 70 µl/well of PBS-T. Binding was detected by 25 µl/well of anti-hIgG1-Fc-HRP (0.2 µg/ml, Thermo Fisher Scientific, #A-10648) or anti-His-tag-HRP (0.2 µg/ml, Abcam, #ab1187) in assay diluent, incubated for 1 h at 4 °C. […] Absorbance at 450 nm was recorded with a plate reader. […]

[7] = test system: biotinylated Wnt5a; assay: ELISA binding to Wnt5a; parameters: species or system human/mouse (hmWnt5a); settings: Wnt5a versus Wnt3a
Protocol: as §1

Molecule	levels of sPtk7 in conditioned media [1]	senescence (SA-β-gal) [2]	percentage of cystic organoids ([3]; Wnt3a 25 ng/ml)	percentage of cystic organoids ([3]; Wnt3a 50 ng/ml)	percentage of cystic organoids ([3]; Wnt3a 100 ng/ml)	percentage of cystic organoids ([3]; Wnt3a 250 ng/ml)	percentage of cystic organoids ([3]; Wnt3a 500 ng/ml)	induction of cystic organoids ([3]; recombinant Wnt ligand added to crypt cultures)	effect on cytosolic Ca2+ levels and oscillations [4]	TOPbrite dual-luciferase Wnt reporter activity ([5]; replicate 1)	TOPbrite dual-luciferase Wnt reporter activity ([5]; replicate 2)	TOPbrite dual-luciferase Wnt reporter activity ([5]; replicate 3)	TOPbrite dual-luciferase Wnt reporter activity ([5]; replicate 4)	competition for binding to Wnt3a or Wnt5a [6]	binding to Wnt3a and Wnt5a, relative affinity [7]
COc1cccc2c1C(=O)c1c(O)c3c(c(O)c1C2=O)C[C@@](O)(C(=O)CO)C[C@@H]3O[C@H]1C[C@H](N)[C@H](O)[C@H](C)O1 [doxorubicin]	contained higher levels of sPtk7	confirmed senescence													
Wnt3a [reference compound]			7.495% and 3.142% and 6.766%	18.7879% and 6.422% and 6.8556%	13.092% and 2.902% and 16.5461%	21.7379% and 11.3578% and 13.1232%	37.371% and 19.4444% and 31.0445%	dose-dependently increased organoids with cystic morphology	decreased cytosolic Ca^2+ levels	83.0786	67.4901	77.6835	73.6039		
B1									modulate cytosolic Ca^2+ oscillations					unaffected by a saturating amount of FZD7 CRD	bound Wnt5a with higher affinity
